Read-outs that look alike come from different tables or passages of the source.

In data set [1] the test system is Red Blood Cells from whole human blood. In words: Red Blood Cells hemolysis assay. The protocol: Red Blood Cells from whole human blood were separated by centrifugation at room temperature and washed in sodium chloride solution two times and resuspended in phosphate buffer saline with pH 7.4. The resuspended red blood cells were incubated with the composition to be evaluated for 30 minutes at 37° C. The samples were centrifuged and the supernatant collected and analyzed for hemolysis using UV spectroscopy. The percentage of hemolysis was estimated against a negative control phosphate buffer saline with pH 7.4 and positive control 0.5% Triton-X100 prepared in phosphate-buffered saline with pH 7.4.
Red Blood Cells from whole human blood (5 milliliter) were separated by centrifugation (500×g, 5 minutes) at room temperature and washed in 150 mM sodium chloride (NaCl) solution two times and resuspended in a total final volume of 5 milliliter with phosphate buffered saline with pH 7.4. The resuspended red blood cells were incubated by mixing with materials listed in Table 1 for 30 minutes at 37° C. The samples were centrifuged (500×g, 5 minutes, room temperature), and supernatants were collected and analyzed for hemolysis using UV spectroscopy at spectra 540 nm. The percentage hemolysis was estimated against a negative control phosphate buffered saline with pH 7.4 and positive control 0.5% Triton-X100.

The test system of data set [2] is circulating tumor cells (CTC). In words: Destruction of circulating tumor cells using cisplatin. It counts as cell-based, human. Conditions: CTCs isolated with composition of example 33; 30 micrograms Cisplatin in 100 microliter PBS pH 7.4, two hours. The protocol:
1.5 ml blood of a cancer patient was incubated with 300 micrograms of composition of example 33 for 5 minutes. CTCs were isolated using magnetic separation and cells were fixed with absolute ethanol and immuno-stained with cytokeratin (CK-18), leucocyte common antigen (CD-45) and with nuclear-staining probe 4′,6-diamidino-2-phenylindole (DAPI). Captured cells were imaged under fluorescence microscope, wherein 3 CTCs were isolated.
1.5 ml blood of a cancer patient was incubated with 300 micrograms of composition of example 33 for 5 minutes. CTCs were isolated using magnetic separation and incubated for two hours with 30 micrograms Cisplatin in 100 microliter phosphate buffered saline, pH 7.4, and the composition was fixed with absolute ethanol and immuno-stained with cytokeratin (CK-18), leucocyte common antigen (CD-45) and with nuclear-staining probe 4′,6-diamidino-2-phenylindole (DAPI) and imaged under fluorescence microscope.

As to `CCO[Si](CCCN)(OCC)OCC` [(3-Aminopropyl)triethoxysilane], the “Percentage Hemolysis” value in data set [1] (sample amount 0.5%, 30 minutes at 37° C.) came out at 0%; in data set [1] (sample amount 10%, 30 minutes at 37° C.), 36%.
As for Triton-X100, the “Percentage Hemolysis” value in data set [1] is recorded as 100%.
For the compound `N.N.[Cl][Pt][Cl]` [Cisplatin], the “CTCs observed after incubation with the drug” value in data set [2] was “No CTCs were observed”.

The values above are taken from patent publication US20210106742A1, “NON-HEMOLYTIC COMPOSITIONS AND METHODS OF USE FOR RECOVERING DISEASE CAUSING TOXIC CONSTITUENTS IN THE BLOOD” (ACTORIUS INNOVATIONS AND RESEARCH CO, priority 2019, published 2021).
